Assay results from patent US20110178104A1, “Anti-Heparin Compounds” (POLYMEDIX INC., priority 2010, published 2011).

Experiments:
enoxaparin = experiment: FXa amidolytic assay (Example 10), enoxaparin; settings: read-out: Enox FXa EC50; enoxaparin 0.1 ug/ml; human antithrombin, bovine Factor Xa
tinzaparin = experiment: FXa amidolytic assay (Example 10), tinzaparin; settings: read-out: Tinzap FXa EC50; tinzaparin 0.1 ug/ml; human antithrombin, bovine Factor Xa
fondaparinux = experiment: FXa amidolytic assay (Example 10), fondaparinux; settings: read-out: Fondap FXa EC50; fondaparinux 0.02 μg/mL; human antithrombin, bovine Factor Xa
Unfractionated heparin = experiment: aPTT clotting assay, UFH 0.4 U/mL in plasma (Example 10); format: biochemical; settings: unfractionated heparin 0.4 U/mL in plasma; aPTT clotting
Method: aPTT clotting Assay: Unfractionated heparin was mixed with plasma at a final concentration of 0.4 U/mL (or concentration which increases aPTT time to between 120 and 300 seconds). […] The ACL Elite Hemostasis analyzer (Beckman Coulter™) was used to add aPTT reagent (HemosIL SynthASil) to supplemented plasma. Clotting was initiated by addition of CaCl2 and time to clot was recorded.

Row | EC50 (enoxaparin) | EC50 (tinzaparin) | EC50 (fondaparinux) | EC50 (Unfractionated heparin) | Compound
1 | 225 nM | 174 nM | 1830 nM | – | CCOC(=O)CC(=O)N[C@@H](CCCCN)C(=O)Nc1ccc(OC)c(C(=O)N[C@@H](CCCCN)C(=O)Nc2ccc(OC)c(C(=O)N[C@@H](CCCCN)C(=O)Nc3ccc(OC)c(C(=O)N[C@@H](CCCCN)C(=O)Nc4ccc(OC)c(C(N)=O)c4)c3)c2)c1 [Compound 337]
2 | 283 nM | – | – | 2990 nM | COc1ccc(NC(=O)[C@H](CCCNC(=N)N)NC(=O)c2cc(NC(=O)[C@H](CCCCN)NC(=O)c3cc(NC(=O)[C@H](CCCCN)NC(=O)c4cc(NC(=O)[C@@H](N)CCCCN)ccc4OC)ccc3OC)ccc2OC)cc1C(N)=O [Compound 203]
3 | 398 nM | – | – | 4550 nM | COc1ccc(NC(=O)[C@H](CCCCN)NC(=O)c2cc(NC(=O)[C@H](CCCCN)NC(=O)c3cc(NC(=O)[C@H](C)NC(=O)c4cc(NC(=O)[C@@H](N)CCCCN)ccc4OC)ccc3OC)ccc2OC)cc1C(N)=O [Compound 202]
4 | 73 nM | – | 259 nM | 883 nM | COc1ccc(NC(=O)[C@@H](CCCNC(=N)N)NC(=O)c2cc(NC(=O)[C@@H](CCCNC(=N)N)NC(=O)c3cc(NC(=O)[C@@H](CCCNC(=N)N)NC(=O)c4cccc(NC(=O)[C@H](N)CCCNC(=N)N)c4)ccc3OC)ccc2OC)cc1C(N)=O [Compound 212]
5 | 137 nM | – | 2870 nM | 5900 nM | COc1ccc(NC(=O)[C@@H](CCCNC(=N)N)NC(=O)c2cc(NC(=O)[C@@H](CCCNC(=N)N)NC(=O)c3cccc(NC(=O)[C@@H](CCCNC(=N)N)NC(=O)c4cc(NC(=O)[C@H](N)CCCNC(=N)N)ccc4OC)n3)ccc2OC)cc1C(N)=O [Compound 211]
6 | 125 nM | – | – | 5450 nM | COc1cc(OC)c(C(=O)N[C@H]2CC[C@H](NC(=O)c3cc(C(=O)N[C@H]4CC[C@H](NC(=O)c5cc(C(=O)NCCN(C)C)c(OC)cc5OC)CC4)c(OCCCCCNC(=N)N)cc3OCCCCCNC(=N)N)CC2)cc1C(=O)NCCN(C)C [Compound 220]
7 | 78 nM | – | 354 nM | 893 nM | COc1ccc(NC(=O)[C@H](CCCCN)NC(=O)c2cc(NC(=O)[C@H](CCCCN)NC(=O)c3cc(NC(=O)[C@@H](N)CCCCN)ccc3OC)ccc2OC)cc1C(=O)N[C@@H](CCCCN)C(=O)Nc1cccc(C(N)=O)c1 [Compound 213]
8 | 450 nM | – | 4790 nM | – | COc1ccc(NC(=O)[C@H](CCCCN)NC(=O)c2cc(NC(=O)[C@H](CCCCN)NC(=O)c3cc(NC(=O)[C@H](CCCCN)NC(=O)c4cc(NC(=O)[C@H](CCCCN)NC(=N)N)ccc4OC)ccc3OC)ccc2OC)cc1C(N)=O [Compound 292]
9 | 82 nM | – | 1400 nM | 2550 nM | COc1ccc(C(N)=O)cc1NC(=O)[C@@H](CCCNC(=N)N)NC(=O)c1cc(NC(=O)[C@@H](CCCNC(=N)N)NC(=O)c2cc(NC(=O)[C@@H](CCCNC(=N)N)NC(=O)c3cc(NC(=O)[C@H](N)CCCNC(=N)N)ccc3OC)ccc2OC)ccc1OC [Compound 210]
10 | 241 nM | 176 nM | 2750 nM | – | COC(=O)CCC(=O)N[C@@H](CCCCN)C(=O)Nc1ccc(OC)c(C(=O)N[C@@H](CCCCN)C(=O)Nc2ccc(OC)c(C(=O)N[C@@H](CCCCN)C(=O)Nc3ccc(OC)c(C(=O)N[C@@H](CCCCN)C(=O)Nc4ccc(OC)c(C(N)=O)c4)c3)c2)c1 [Compound 338]
11 | 74 nM | – | 176 nM | 853 nM | CCOc1ccc(NC(=O)[C@@H](CCCNC(=N)N)NC(=O)c2cc(NC(=O)[C@H](N)CCCNC(=N)N)ccc2OC)cc1C(=O)N[C@H](CCCNC(=N)N)C(=O)Nc1ccc(OC)c(C(=O)N[C@H](CCCNC(=N)N)C(=O)Nc2ccc(OC)c(C(N)=O)c2)c1 [Compound 218]
12 | 202 nM | – | – | – | COc1ccc(NC(=O)[C@H](CCCCN)NC(=O)c2cc(NC(=O)[C@H](CCCCN)NC(=O)c3cc(NC(=O)[C@H](CCCNC(=N)N)NC(=O)c4cc(NC(=O)[C@@H](N)CCCCN)ccc4OC)ccc3OC)ccc2OC)cc1C(N)=O [Compound 205]
13 | 148 nM | – | – | 1960 nM | COc1ccc(NC(=O)[C@H](CCCCN)NC(=O)c2cc(NC(=O)[C@H](CCCCN)NC(=O)c3cc(NC(=O)[C@H](CCCCN)NC(=O)c4cc(NC(=O)[C@@H](N)CCCNC(=N)N)ccc4OC)ccc3OC)ccc2OC)cc1C(N)=O [Compound 206]
14 | – | – | – | > 10000 nM | CN(C)CCNC(=O)c1cc(C(=O)NC2CCC(NC(=O)c3cc(C(=O)NCCN(C)C)c(OCCCCCN)cc3OCCCCCN)CC2)c(OCCCCCN)cc1OCCCCCN (stereo not shown) [Compound 227]
15 | 87 nM | – | 432 nM | 1910 nM | COc1ccc(NC(=O)[C@H](CCCCN)NC(=O)c2cccc(NC(=O)[C@H](CCCCN)NC(=O)c3cc(NC(=O)[C@H](CCCCN)NC(=O)c4cc(NC(=O)[C@@H](N)CCCCN)ccc4OC)ccc3OC)c2)cc1C(N)=O [Compound 214]
16 | 47 nM | – | 1180 nM | 2480 nM | COc1ccc(NC(=O)[C@@H](CCCNC(=N)N)NC(=O)CCCCNC(=N)N)cc1C(=O)N[C@H](CCCNC(=N)N)C(=O)Nc1ccc(OC)c(C(=O)N[C@H](CCCNC(=N)N)C(=O)Nc2ccc(OC)c(C(=O)N[C@H](CCCNC(=N)N)C(=O)Nc3ccc(OCCNC(=N)N)c(C(N)=O)c3)c2)c1 [Compound 291]
17 | > 10000 nM | – | > 10000 nM | – | COc1ccc(NC(=O)[C@@H](CCCCN)NC(=O)c2c(OC)ccc(NC(=O)[C@@H](CCCCN)NC(=O)c3c(OC)ccc(NC(=O)[C@@H](CCCCN)NC(=O)c4c(OC)ccc(NC(=O)[C@H](N)CCCCN)c4OC)c3OC)c2OC)c(OC)c1C(N)=O [Compound 293]
18 | 73 nM | – | 288 nM | 2850 nM | COc1ccc(NC(=O)[C@H](CCCCN)NC(=O)c2cc(NC(=O)[C@H](CCCCN)NC(=O)c3cccc(NC(=O)[C@H](CCCCN)NC(=O)c4cc(NC(=O)[C@@H](N)CCCCN)ccc4OC)c3)ccc2OC)cc1C(N)=O [Compound 215]
19 | 39 nM | – | – | – | COc1ccc(NC(=O)[C@@H](CCCNC(=N)N)NC(=O)c2cc(NC(=O)[C@@H](CCCNC(=N)N)NC(=O)c3cc(NC(=O)[C@@H](CCCNC(=N)N)NC(=O)c4cc(NC(=O)[C@H](N)CCCNC(N)=O)ccc4OC)ccc3OC)ccc2OC)cc1C(N)=O [Compound 207]
20 | 235 nM | 201 nM | 932 nM | – | COc1ccc(NC(=O)[C@H](CCCCN)NC(=O)c2cc(NC(=O)[C@H](CCCCN)NC(=O)c3cc(NC(=O)[C@H](CCCCN)NC(=O)c4cc(NC(=O)[C@H](CCCCN)NC(=O)c5ccccc5C(=O)O)ccc4OC)ccc3OC)ccc2OC)cc1C(N)=O [Compound 343]
21 | 74 nM | – | 252 nM | 1120 nM | CCOc1ccc(NC(=O)[C@@H](CCCNC(=N)N)NC(=O)c2cc(NC(=O)[C@@H](CCCNC(=N)N)NC(=O)c3cc(NC(=O)[C@@H](CCCNC(=N)N)NC(=O)c4cc(NC(=O)[C@H](N)CCCNC(=N)N)ccc4OC)ccc3OC)ccc2OC)cc1C(N)=O [Compound 217]
22 | 239 nM | – | – | 3020 nM | COc1ccc(NC(=O)[C@H](CCCCN)NC(=O)c2cc(NC(=O)[C@H](CCCNC(=N)N)NC(=O)c3cc(NC(=O)[C@H](CCCCN)NC(=O)c4cc(NC(=O)[C@@H](N)CCCCN)ccc4OC)ccc3OC)ccc2OC)cc1C(N)=O [Compound 204]
23 | 974 nM | – | – | 6000 nM | COc1ccc(NC(=O)[C@H](CCCCN)NC(=O)c2cc(NC(=O)[C@H](C)NC(=O)c3cc(NC(=O)[C@H](CCCCN)NC(=O)c4cc(NC(=O)[C@@H](N)CCCCN)ccc4OC)ccc3OC)ccc2OC)cc1C(N)=O [Compound 201]
